Measurements from paper PMC8813803 (Clinical Pharmacokinetics, 2021).

Key:
[1] = Clinical ADME study NCT03315559; format: in vivo; conditions: human; set from Fg 0.83 of clinical study 206764
[2] = test system: liver uptake transporters; assay: Liver uptake transporter substrate status; format: in vitro ADME
[3] = human, cited from earlier work
[4] = in words; cited from earlier work
[5] = in words; cited from earlier work; remark: listed apart in the source
[6] = in words; cited from earlier work; remark: listed apart in the source

## CC(C)N1CCN(Cc2cnc(-c3cc(-c4cccc5[nH]ccc45)cc4[nH]ncc34)o2)CC1 [nemiralisib, Nemiralisib]
[1]
  Intestinal FPE (first-pass extraction): 17%
[2]
  Substrate of liver uptake transporters: not a substrate
[3]; clinical study 206764 (NCT03315559)
  Fg (fraction escaping gut wall metabolism): 0.83
[3]; intravenous dosing
  Volume of distribution at steady state: approximately 10 L/kg
[3]; oral dose
  tmax (time of maximum plasma concentration): 6 h
[3]
  Oral bioavailability: 35%
[4]
  Rat lung tissue binding: high
[5]
  Permeability: high
[6]
  Solubility: reasonable
